# Results reported in US20080293081A1, “Fluorescence Polarization Assays for Acetyltransferase/Deacetylase Activity” (Sirtris Pharmaceuticals, Inc., priority 2005, published 2008).
# Like-named read-outs stand apart in the source and are kept apart here. No end group written: not given here.
# Legend:
# SIRT1 [1] = target: T1, SIRT1 (Homo sapiens, UniProt Q96EB6); test: Fluorescence polarization assay, SIRT1 deacetylation of p53-based peptide substrate; type: biochemical; settings: for EC50: activation of SIRT1, compounds 1-18 with peptide 1 (MR121), compounds 19-56 with peptide 2 (5TMR), read-out: ED50 (the source's name); for IC50: inhibition of SIRT1
# T1 sequence (Q96EB6 1-747): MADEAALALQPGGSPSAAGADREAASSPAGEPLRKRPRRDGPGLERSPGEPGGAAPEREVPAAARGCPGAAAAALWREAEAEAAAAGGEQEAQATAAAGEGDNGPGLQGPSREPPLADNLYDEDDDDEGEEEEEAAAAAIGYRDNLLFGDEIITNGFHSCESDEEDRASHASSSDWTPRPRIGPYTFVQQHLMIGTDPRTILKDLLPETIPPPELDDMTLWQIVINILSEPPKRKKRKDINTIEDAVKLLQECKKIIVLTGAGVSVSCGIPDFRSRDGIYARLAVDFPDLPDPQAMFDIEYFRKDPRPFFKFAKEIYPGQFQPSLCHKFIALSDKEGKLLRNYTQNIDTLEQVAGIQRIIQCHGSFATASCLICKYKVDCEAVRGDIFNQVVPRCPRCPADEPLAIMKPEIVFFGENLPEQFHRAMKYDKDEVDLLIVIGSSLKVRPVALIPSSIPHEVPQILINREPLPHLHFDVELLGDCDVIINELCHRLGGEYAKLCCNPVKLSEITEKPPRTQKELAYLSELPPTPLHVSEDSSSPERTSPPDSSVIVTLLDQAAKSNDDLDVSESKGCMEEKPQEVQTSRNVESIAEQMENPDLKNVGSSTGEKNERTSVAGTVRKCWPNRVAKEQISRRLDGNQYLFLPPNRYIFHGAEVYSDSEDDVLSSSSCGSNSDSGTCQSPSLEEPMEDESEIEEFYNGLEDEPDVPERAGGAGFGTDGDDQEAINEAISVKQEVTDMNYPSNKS
# Sirt2 = target: T2, Sirt2 (Homo sapiens, UniProt Q8IXJ6); settings: Sirt2, Biomol Fluor de Lys product literature, cited from earlier work
# T2 sequence (Q8IXJ6 1-389): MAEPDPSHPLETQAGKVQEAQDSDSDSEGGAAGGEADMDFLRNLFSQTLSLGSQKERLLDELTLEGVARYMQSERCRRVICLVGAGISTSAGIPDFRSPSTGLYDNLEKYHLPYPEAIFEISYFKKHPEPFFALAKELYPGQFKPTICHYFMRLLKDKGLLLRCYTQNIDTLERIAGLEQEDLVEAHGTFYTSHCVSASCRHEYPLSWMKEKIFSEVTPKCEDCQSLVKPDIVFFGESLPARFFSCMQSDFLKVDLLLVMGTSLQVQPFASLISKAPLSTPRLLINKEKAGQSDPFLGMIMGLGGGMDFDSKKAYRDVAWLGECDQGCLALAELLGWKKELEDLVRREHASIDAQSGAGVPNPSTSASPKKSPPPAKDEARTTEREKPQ
# Sirt3 [2] = target: T3, Sirt3 (Homo sapiens, UniProt Q9NTG7); settings: Sirt3, Biomol Fluor de Lys product literature, cited from earlier work
# T3 sequence (Q9NTG7 1-399): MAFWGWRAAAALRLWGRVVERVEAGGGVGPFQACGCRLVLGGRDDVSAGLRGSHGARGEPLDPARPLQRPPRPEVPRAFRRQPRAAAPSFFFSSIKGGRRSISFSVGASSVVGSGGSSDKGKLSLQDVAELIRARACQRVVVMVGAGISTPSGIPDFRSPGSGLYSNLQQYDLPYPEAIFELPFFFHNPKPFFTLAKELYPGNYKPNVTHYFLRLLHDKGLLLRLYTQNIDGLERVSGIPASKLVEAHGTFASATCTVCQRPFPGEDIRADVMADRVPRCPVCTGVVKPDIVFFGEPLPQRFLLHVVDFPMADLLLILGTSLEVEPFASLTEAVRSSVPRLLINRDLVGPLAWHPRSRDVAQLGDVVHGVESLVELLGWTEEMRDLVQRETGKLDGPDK
# SIRT1 [3] = target: T1, SIRT1; settings: Sirt1, nicotinamide release, cited from earlier work
# SIRT3 [4] = target: T4, SIRT3 (Homo sapiens, UniProt Q9NTG7); test: Fluorescence polarization assay, SIRT3 deacetylation of Histone H4-based peptide substrate; type: biochemical
# T4 construct: amino acid residues 102-399 of human SIRT3 with an N-terminal His-tag; His-tag (N); made in house; host or cells: E. coli
# T4 sequence (Q9NTG7 102-399): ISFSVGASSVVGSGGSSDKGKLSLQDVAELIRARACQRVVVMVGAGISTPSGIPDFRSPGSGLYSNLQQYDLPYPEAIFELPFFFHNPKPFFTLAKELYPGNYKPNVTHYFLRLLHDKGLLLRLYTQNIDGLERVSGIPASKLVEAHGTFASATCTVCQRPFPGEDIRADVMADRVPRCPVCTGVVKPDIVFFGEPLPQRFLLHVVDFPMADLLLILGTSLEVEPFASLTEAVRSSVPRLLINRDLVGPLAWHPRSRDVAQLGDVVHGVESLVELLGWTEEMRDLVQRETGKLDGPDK
# Text: A fluorescence polarization assay was used to identify modulators of SIRT3 activity. The same assay may be used to identify modulators of any sirtuin protein. The assay utilizes a peptide substrate based on a fragment of Histone H4, a known sirtuin deacetylation target. […] The peptide is labeled with the fluorophore MR121 (excitation 635 nm/emission 680 nm) at the C-terminus and biotin at the N-terminus.
# The peptide substrate is exposed to a sirtuin protein in the presence of NAD^+ to allow deacetylation of the substrate and render it sensitive to cleavage by trypsin. Trypsin is then added and the reaction is carried to completion (i.e., the deacetylated substrate is cleaved) releasing the MR121 fragment. Streptavidin is then added to the reaction where it can bind both the uncleaved substrate (i.e., any remaining acetylated substrate) and the non-fluorescent portion of the cleaved peptide substrate (i.e., the biotin containing fragment). The fluorescence polarization signal observed for the full length peptide substrate bound to streptavidin is higher than the fluorescence polarization signal observed for the released MR121 C-terminal fragment. Therefore, the fluorescence polarization obtained is inversely proportional to the level of deacetylation (e.g., the signal is inversely proportional to the activity of the sirtuin protein). Results are read on a microplate fluorescence polarization reader (Molecular Devices Spectramax MD) with appropriate excitation and emission filters.
# The fluorescence polarization assays may be conducted as follows: 0.5 μM peptide substrate and 50 μM βNAD^+ is incubated with 2 nM of SIRT3 for 60 minutes at 37° C. in a reaction buffer (25 mM Tris-acetate pH8, 137 mM Na—Ac, 2.7 mM K—Ac, 1 mM Mg—Ac, 0.1% Pluronic F127, 10 mM CaCl2, 1 mM TCEP, 0.025% BSA). Test compounds are solubilized in DMSO and are added to the reaction at 11 concentrations ranging from 0.7 μM to 100 μM. The SIRT3 protein used in the assays corresponded to amino acid residues 102-399 of human SIRT3 with an N-terminal His-tag. The protein was overexpressed in E. coli and purified on a nickel chelate column using standard techniques. After the 60 minute incubation with SIRT3, nicotinamide is added to the reaction to a final concentration of 3 mM to stop the deacetylation reaction and 0.5 μg/mL of trypsin is added to cleave the deacetylated substrate. The reaction is incubated for 30 minutes at 37° C. in the presence of 1 mM streptavidin. Fluorescent polarization is determined at excitation (650 nm) and emissions (680 nm) wavelengths. The level of activity of the sirtuin protein in the presence of the various concentrations of test compound are then determined and may be compared to the level of activity of the sirtuin protein in the absence of the test compound, and/or the level of activity of the sirtuin proteins in the negative control (e.g., level of inhibition) and positive control (e.g., level of activation) described below.
# A control for activation of sirtuin activity is conducted using 0.5 μg/mL of sirtuin protein to reach baseline deacetylation of the substrate (e.g., to determine normalized sirtuin activity).
# SIRT1 [5] = target: T1, SIRT1; settings: Sirt1, Biomol Fluor de Lys product literature, cited from earlier work
# [6] = Km of NAD with the named peptide substrate, read-out: NAD Km
# [7] = read-out: ED50 (the source's name)
# [8] = Km of NAD with the named peptide substrate, Kaeberlein et al., read-out: NAD Km
# [9] = Kaeberlein et al., read-out: Peptide Km
compound,measurement,setting,value
Cc1ccc2nc(-c3ccccc3)cc(C(=O)NCCN3CCOCC3)c2c1 [Compound 12],EC50,SIRT1 [1],51 to 100 µM
"p53 (aa 317-320) *FL: p53 (aa 317-320) peptide substrate with fluorescent label, Biomol Fluor de Lys SIRT2 and SIRT3 kits (QPKK; also: fluorescent label; UniProt P04637 317-320, looked up, fragment)",Km,Sirt2; [6],547 µM
same,Km,Sirt2; read-out: Peptide Km,186 µM
same,Km,Sirt3 [2]; [6],2030 µM
same,Km,Sirt3 [2]; read-out: Peptide Km,32 µM
"p53 19 mer (aa 368-386) no FL: p53 19 mer (aa 368-386) peptide substrate without fluorescent label, McDonagh et al. (HLKSKKGQSTSRHKKLMFK; UniProt P04637 368-386, looked up, fragment)",Km,"SIRT1 [3]; Km of NAD with the named peptide substrate, McDonagh et al., read-out: NAD Km",133 µM
same,Km,"SIRT1 [3]; McDonagh et al., read-out: Peptide Km",10.3 µM
Cc1cc(C)nc(Nc2c3ccccc3nc3ccccc23)c1 [Compound 74],IC50,SIRT1 [1],> 150 µM
O=C(O)c1c(O)c(-c2ccccc2)nc2ccccc12 [Compound 80],EC50,SIRT3 [4]; [7],51 to 100 µM
COc1cc(C(=O)NNC(=O)c2c3ccccc3nc3ccccc23)cc(OC)c1OC [Compound 75],IC50,SIRT1 [1],< 50 µM
"p53 (aa 368-386) no FL: p53 (aa 368-386) peptide substrate without fluorescent label, Kaeberlein et al. (HLKSKKGQSTSRHKKLMFK; UniProt P04637 368-386, looked up, fragment)",Km,SIRT1 [3]; [8],132 µM
same,Km,SIRT1 [3]; [9],10.3 µM
O=C(NCCN1CCOCC1)c1cc(-c2cccs2)nc2ccccc12 [Compound 5],EC50,SIRT1 [1],101 to 150 µM
"Oc1ccc(C=Cc2cc(O)cc(O)c2)cc1 [resveratrol, reference compound]",EC50,"SIRT3 [4]; activation of SIRT3, read-out: ED50 for activation of SIRT3",> 300 µM
"p53 (aa 368-386) *FL: p53 (aa 368-386) peptide substrate with fluorescent label, Kaeberlein et al. (HLKSKKGQSTSRHKKLMFK; also: fluorescent label; UniProt P04637 368-386, looked up, fragment)",Km,SIRT1 [3]; [8],192 µM
same,Km,SIRT1 [3]; [9],87.6 µM
O=C(NNc1c2ccccc2nc2ccccc12)c1ccccn1 [Compound 2],EC50,SIRT1 [1],51 to 100 µM
O=C(NNc1c2ccccc2nc2ccccc12)c1cccnc1 [Compound 11],EC50,SIRT3 [4]; [7],51 to 100 µM
COc1cc(NC(=O)Nc2c3c(nc4ccccc24)CCCC3)cc(OC)c1OC [Compound 78],IC50,SIRT1 [1],101 to 150 µM
COc1ccccc1NC(=O)Nc1c2c(nc3ccccc13)CCCC2 [Compound 77],IC50,SIRT1 [1],> 150 µM
FC(F)(F)c1ccnc(NNc2c3ccccc3nc3ccccc23)n1 [Compound 33],EC50,SIRT1 [1],101 to 150 µM
Cc1ccc2nc(-c3ccco3)cc(C(=O)NCCCCN3CCOCC3)c2c1 [Compound 72],IC50,SIRT1 [1],> 150 µM
Cc1nc(-c2cccc(NC(=O)c3c4ccccc4nc4ccccc34)c2)cs1 [Compound 76],IC50,SIRT1 [1],> 150 µM
CC(=O)Nc1ccc(Nc2cc(C)nc3c(C)cccc23)cc1 [Compound 81],IC50,SIRT3 [4],101 to 150 µM
O=C(NNc1c2c(nc3ccccc13)CCCC2)c1ccccn1 [Compound 73],IC50,SIRT1 [1],< 50 µM
O=C(Nc1ccccc1)c1c2c(nc3ccccc13)-c1ccccc1CC2 [Compound 79],IC50,SIRT1 [1],> 150 µM
"p53 (aa 379-382) *FL: p53 (aa 379-382) peptide substrate with fluorescent label, Biomol Fluor de Lys SIRT1 kit (RHKK; also: fluorescent label; UniProt P04637 379-382, looked up, fragment)",Km,SIRT1 [5]; [6],558 µM
same,Km,SIRT1 [5]; read-out: Peptide Km,64 µM
O=C(NCCN1CCOCC1)c1cc(-c2cccs2)nc2ccc(F)cc12 [Compound 7],EC50,SIRT1 [1],101 to 150 µM
O=C(NCc1ccncc1)c1cc(-c2ccsc2)nc2ccccc12 [Compound 1],EC50,SIRT3 [4]; [7],51 to 100 µM
